Results as given in patent US10479789B2, “Pyrido[1,2-A]pyrimidone analog, crystal form thereof, intermediate thereof and preparation method therefor” (Chia Tai Tianqing Pharmaceutical Group Co., Ltd., priority 2015, dated 2019).

Experiments:
[1] = system: human gastric cancer ST-02-0013; assay: In vivo pharmacodynamics, subcutaneous xenograft tumor model of human gastric cancer ST-02-0013; set-up: species or system BALB/c nude mice
Protocol: The studies were conducted to examine if the test drugs have in vivo efficacy in the human colon cancer CO-04-0032 animal model and the gastric cancer ST-02-0013 animal model. The descriptions about the animal feeding, feed ingredients, experimental observation, experimental indexes, experimental termination, as well as data analysis in the tests were as follows:
Animal Grouping: The animals were weighed and the tumor volume was measured prior to administration. The animals were randomly grouped according to tumor volume (randomized block design).
Experimental Indexes: The experimental indexes were used to examine whether tumor growth is inhibited, delayed or cured. Tumor diameter was measured twice a week with a vernier caliper. The tumor volume was calculated by the formula: V=0.5a×b^2, wherein a and b represent the long diameter and short diameter of a tumor, respectively. Tumor growth inhibition (TGI) of a compound was evaluated with T-C (day) and T/C (%). […]
Data Analysis: One-way ANOVA was used for comparison of three or more groups. […] All data was analyzed using SPSS 17.0. p<0.05 indicated a significant difference. […]

[2] = target: PI3Kβ (Homo sapiens, UniProt P42338); assay: ADP-Glo Assay II, PI3Kβ; format: biochemical; conditions: read-out: IC50 for inhibition of PI3Kβ activity
Chain of PI3Kβ (P42338 whole entry): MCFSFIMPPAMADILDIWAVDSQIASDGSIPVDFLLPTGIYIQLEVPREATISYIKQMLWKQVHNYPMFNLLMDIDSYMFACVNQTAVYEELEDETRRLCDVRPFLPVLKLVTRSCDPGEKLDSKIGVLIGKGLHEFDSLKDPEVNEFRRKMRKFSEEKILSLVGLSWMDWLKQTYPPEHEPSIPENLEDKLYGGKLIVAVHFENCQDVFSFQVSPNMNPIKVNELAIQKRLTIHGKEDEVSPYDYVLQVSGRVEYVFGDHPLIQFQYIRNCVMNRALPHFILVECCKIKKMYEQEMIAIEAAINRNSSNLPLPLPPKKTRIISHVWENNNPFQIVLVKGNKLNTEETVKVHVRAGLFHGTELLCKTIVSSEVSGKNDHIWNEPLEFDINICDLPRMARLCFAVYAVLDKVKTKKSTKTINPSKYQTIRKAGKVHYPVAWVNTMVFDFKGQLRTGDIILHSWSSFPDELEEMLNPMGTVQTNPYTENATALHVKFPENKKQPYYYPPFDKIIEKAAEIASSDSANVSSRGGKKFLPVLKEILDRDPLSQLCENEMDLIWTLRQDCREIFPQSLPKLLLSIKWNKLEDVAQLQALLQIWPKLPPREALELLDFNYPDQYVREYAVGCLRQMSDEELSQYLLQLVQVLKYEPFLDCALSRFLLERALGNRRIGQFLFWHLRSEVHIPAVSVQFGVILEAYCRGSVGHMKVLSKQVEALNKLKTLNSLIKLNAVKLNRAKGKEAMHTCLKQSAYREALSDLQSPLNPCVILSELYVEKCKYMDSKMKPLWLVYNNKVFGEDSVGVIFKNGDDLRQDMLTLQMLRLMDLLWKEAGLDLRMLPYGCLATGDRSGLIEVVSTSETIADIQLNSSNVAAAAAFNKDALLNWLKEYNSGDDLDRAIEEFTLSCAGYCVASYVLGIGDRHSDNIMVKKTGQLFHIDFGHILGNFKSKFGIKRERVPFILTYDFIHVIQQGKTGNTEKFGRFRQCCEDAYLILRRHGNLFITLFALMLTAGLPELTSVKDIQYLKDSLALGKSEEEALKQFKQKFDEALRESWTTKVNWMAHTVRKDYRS
Chain of PI3Kβ (P27986 whole entry partner): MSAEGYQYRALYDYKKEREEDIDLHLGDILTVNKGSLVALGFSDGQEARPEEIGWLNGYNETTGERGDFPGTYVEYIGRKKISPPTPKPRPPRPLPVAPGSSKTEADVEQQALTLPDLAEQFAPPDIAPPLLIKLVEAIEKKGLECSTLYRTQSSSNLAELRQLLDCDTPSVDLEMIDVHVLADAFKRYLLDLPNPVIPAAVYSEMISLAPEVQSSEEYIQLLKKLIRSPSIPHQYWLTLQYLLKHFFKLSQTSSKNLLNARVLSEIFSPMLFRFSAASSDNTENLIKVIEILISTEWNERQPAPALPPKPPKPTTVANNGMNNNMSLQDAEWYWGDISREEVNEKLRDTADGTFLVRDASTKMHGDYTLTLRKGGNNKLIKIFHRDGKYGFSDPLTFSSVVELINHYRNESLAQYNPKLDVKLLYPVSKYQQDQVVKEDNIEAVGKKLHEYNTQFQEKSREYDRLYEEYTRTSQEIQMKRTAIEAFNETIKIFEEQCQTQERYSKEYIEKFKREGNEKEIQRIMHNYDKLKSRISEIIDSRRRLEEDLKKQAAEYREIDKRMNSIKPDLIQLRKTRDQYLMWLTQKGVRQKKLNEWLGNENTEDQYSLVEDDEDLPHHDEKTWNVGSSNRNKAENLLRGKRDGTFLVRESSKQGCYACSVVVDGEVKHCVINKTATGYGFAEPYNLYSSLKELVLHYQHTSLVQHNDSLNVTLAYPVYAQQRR
Protocol: 1) The compound was diluted using Echo from Labcyte company, 50 nL of the compound was transferred into an assay plate, and centrifuged at a speed of 1000 rpm for 10 sec.
2) A kinase/lipid substrate mixed solution and a kinase reaction buffer/lipid substrate mixed solution were prepared; the kinase/lipid substrate mixed solution was added into columns 3-24 of the assay plate, 3 μL per well; the kinase reaction buffer/lipid substrate mixed solution was added into columns 1-2 of the assay plat, 3 μL per well; and the plate was centrifuged at a speed of 1000 rpm for 10 sec.
3) An ATP solution was prepared, and added into the assay plate, 2 μL per well; the plate was centrifuged at a speed of 1000 rpm for 10 sec, shaken and mixed in 2nd gear mode on a plate shaker for 1 min, further centrifuged at a speed of 1000 rpm for 10 sec, and incubated for 120 min at 23° C. […]
5) A kinase detection reagent was prepared, added into the assay plate, 10 μL per well; the plate was centrifuged at a speed of 1000 rpm for 10 sec, shaken and mixed in 2nd gear mode on a plate shaker for 1 min, further centrifuged at a speed of 1000 rpm for 10 sec, incubated for 30 min at 23° C.; and then read on the multi-marker detector Envision.
IC50 results were analyzed by XLfit5 (Formula 205) of IDBS company.

[3] = target: T1, mTOR (Homo sapiens, UniProt P42345); assay: mTOR kinase activity, 32P-ATP P81 filter-binding method; format: biochemical; conditions: 3 μM 4EBP1 and 10 μM ATP; read-out: IC50 of mTOR enzyme activity
T1 construct: N-terminal GST tag (amino acid 1360-2549, molecular weight=163.9 kDa); GST (N); host or cells: insect cells
T1 sequence (P42345 1360-2549): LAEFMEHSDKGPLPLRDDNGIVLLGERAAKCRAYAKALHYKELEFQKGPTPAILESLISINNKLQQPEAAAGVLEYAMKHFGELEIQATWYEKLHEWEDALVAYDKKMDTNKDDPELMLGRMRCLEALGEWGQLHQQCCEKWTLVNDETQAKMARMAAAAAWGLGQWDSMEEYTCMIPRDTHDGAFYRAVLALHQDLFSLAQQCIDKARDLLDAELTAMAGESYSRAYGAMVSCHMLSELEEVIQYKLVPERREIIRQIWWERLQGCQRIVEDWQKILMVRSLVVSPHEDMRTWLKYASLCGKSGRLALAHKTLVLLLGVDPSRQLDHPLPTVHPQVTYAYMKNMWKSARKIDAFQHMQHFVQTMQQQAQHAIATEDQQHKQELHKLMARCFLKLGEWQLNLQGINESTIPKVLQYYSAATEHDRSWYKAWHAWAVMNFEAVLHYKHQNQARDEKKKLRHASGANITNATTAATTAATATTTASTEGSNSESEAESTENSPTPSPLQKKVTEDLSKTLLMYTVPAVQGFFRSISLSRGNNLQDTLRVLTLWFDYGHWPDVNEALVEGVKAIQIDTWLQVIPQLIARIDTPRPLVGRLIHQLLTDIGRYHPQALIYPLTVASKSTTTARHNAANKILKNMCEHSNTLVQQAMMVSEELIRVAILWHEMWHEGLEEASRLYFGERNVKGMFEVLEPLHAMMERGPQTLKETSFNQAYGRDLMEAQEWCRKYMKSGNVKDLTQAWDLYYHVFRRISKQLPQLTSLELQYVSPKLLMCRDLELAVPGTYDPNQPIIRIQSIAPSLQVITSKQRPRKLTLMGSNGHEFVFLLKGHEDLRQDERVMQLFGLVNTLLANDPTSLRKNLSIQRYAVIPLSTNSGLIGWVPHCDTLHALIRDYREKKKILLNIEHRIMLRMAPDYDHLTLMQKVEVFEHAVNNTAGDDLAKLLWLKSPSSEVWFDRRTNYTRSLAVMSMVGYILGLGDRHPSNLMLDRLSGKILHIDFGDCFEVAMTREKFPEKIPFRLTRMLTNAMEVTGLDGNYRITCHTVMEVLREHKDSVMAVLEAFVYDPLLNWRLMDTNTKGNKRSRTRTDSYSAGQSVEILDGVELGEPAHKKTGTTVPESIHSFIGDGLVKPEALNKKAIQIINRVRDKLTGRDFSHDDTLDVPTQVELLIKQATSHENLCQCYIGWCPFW
Protocol: The activity of the test compounds of the present invention on mTOR kinase was tested by the test method below.
Reaction Buffer: 20 mM Hepes (pH 7.5), 10 mM MgCl2, 2 mM MnCl2, 1 mM EGTA, 0.02% Brij35, 0.02 mg/mL BSA, 0.1 mM Na3VO4, 2 mM DTT, 2% DMSO.
Enzyme for reaction: humanized recombinant mTOR fragment with a N-terminal GST tag (amino acid 1360-2549, molecular weight=163.9 kDa), expressed in insect cells.
Reaction Substrate: humanized recombinant full-length 4EBP1 with a N-terminal His tag (molecular weight=13.6 kDa), expressed in bacteria;
Reaction conditions: 3 μM 4EBP1 and 10 μM ATP.
1. The reaction substrate and other reaction factors were added to the freshly prepared reaction buffer.
2. The kinase was added to the substrate reaction and gently mixed.
3. The compound dissolved in 100% DMSO was transferred into the kinase reaction solution using Acoustic technology (Echo 550; nanoliter rang) and then incubated at room temperature for 20 min.
4. An appropriate concentration of ^32P-ATP was add to the reaction system.
5. It was incubated at room temperature for 2 hours.
6. Kinase activity was detected by the P81 filter-binding method.

IC50 [2]: 9.9 ± 2.7 nM | IC50 [3]: > 200 nM
Structure (SMILES): COc1ncc(-c2ccc3ncc(OCCN(C)C)c(=O)n3c2)cc1NS(=O)(=O)c1ccc(F)cc1Cl [Compound 1]
increase in tumor volume ([1]; from day 15 to day 30 of the administration, ST-02-0013): almost no increase in tumor volume | anti-tumor activity compared to the positive control drug BKM120 ([1]; gastric cancer ST-02-0013): more excellent anti-tumor activity
